Experimental data reported in patent publication US20160025730A1, “METHODS OF SELECTING COMBINATION THERAPY FOR COLORECTAL CANCER PATIENTS” (NESTEC S.A., priority 2013, published 2016).

Assays:
MEK = test: CEER phospho MEK level; format: cell-based, human; conditions: Lim1215 cells, 24 h, assay range 1.02-100
From the text: (§1) These were complemented by ErbB heterodimerization assays using CEER.

RSK = test: CEER phospho RSK level; format: cell-based, human; conditions: Lim1215 cells, 24 h, assay range 2.56-100
From the text: as §1

ERK = test: CEER phospho ERK level; format: cell-based, human; conditions: Lim1215 cells, 24 h, assay range 1.02-100
AKT = test: CEER phospho AKT level; conditions: Lim1215 cells, 24 h, assay range 1.02-40
HER3 [1] = test: CEER total HER3 expression level; format: cell-based, human; conditions: Lim1215 cells, 24 h, assay range 390-25000
From the text: as §1

HER2 [2] = target: T1, HER2 (Homo sapiens, UniProt P04626); test: CEER phospho HER2 activation level; format: cell-based; conditions: Lim1215 cells, 24 h, assay range 20.48-2000
T1 construct: endogenous in cells; host or cells: Lim1215 human colon cancer cells
From the text: as §1

HER3:PI3K = test: CEER HER3:PI3K complex assay; format: cell-based, human; conditions: Lim1215 cells; 24 h; series 4 (FIG. 4; DMSO 24.7); assay range 3.9-500
From the text: The assays described herein can be used to detect and quantitate the amount of PI3K complex and the amount of activation and/or phosphorylation of a PI3K complex. The PI3K complex comprises: (i) a dimerized receptor tyrosine kinase pair; and (ii) a PI3K p85 subunit and a PI3K p110 (e.g., α or β) subunit. In particular embodiments, the assay comprises three antibodies: (1) a capture antibody specific for either the PI3K p85 or the PI3K p110 subunit; (2) a first detection antibody specific for a first member of the dimerized receptor tyrosine kinase pair or a PI3K subunit, wherein the first detection antibody is specific for a different domain than the capture antibody and wherein the PI3K subunit may be activated; and (3) a second detection antibody specific for a second member of the dimer pair or a PI3K subunit.
as §1

HER2:HER3 = test: CEER ErbB heterodimerization assay, HER2:HER3 dimer; format: cell-based, human; conditions: Lim1215 cells, 24 h, assay range 50-1500
From the text: (§2) In certain aspects, the present invention provides an assay for detecting and/or quantitating homo- or heterodimerization of receptor tyrosine kinases including, but not limited to, HER1:HER2 dimers, HER1:HER3 dimers, HER2:HER3 dimers, HER2:HER2 dimers, HER2:HER4 dimers, p95HER2:HER3 dimers, p95HER2:HER2 dimers, and the like. A homodimer is formed by two identical molecules such as HER2:HER2 in a process called homodimerization, whereas a heterodimer is formed by two different macromolecules such as HER1:HER3 or HER2:HER3 in a process called heterodimerization. In this aspect, the assay comprises three antibodies: (1) a capture antibody specific for one member of the dimer pair; (2) a first detection antibody specific for a first member of the dimer pair, wherein the first detection antibody is specific for a different domain than the capture antibody; and a (3) a second detection antibody specific for a second member of the dimer pair.
(§3) A first detection antibody is then used to bind to a different portion (e.g., epitope) on HER2. […] The first detection antibody comprises one or a plurality of first activation state-independent antibodies specific for one member of the dimer, whereas a second detection antibody or a plurality of second detection antibodies is specific for the other member of the dimer. […] Thereafter, the plurality of detectable captured analytes are incubated with a second member of the signal amplification pair, e.g., tyramide or tyramide biotin to generate an amplified signal, which is then detected.
as §1

HER3 [3] = test: CEER phospho HER3 activation level; format: cell-based, human; conditions: Lim1215 cells, 24 h, assay range 12.8-1500
From the text: as §1

HER2 [4] = test: CEER total HER2 expression level; format: cell-based, human; conditions: Lim1215 cells, 24 h, assay range 390-25000
From the text: as §1

HER1:HER3 = test: CEER ErbB heterodimerization assay, HER1:HER3 dimer; format: cell-based, human; conditions: Lim1215 cells, 24 h, assay range 200-20000
From the text: as §2, §3, §1

HER1 [5] = target: T2, HER1 (Homo sapiens, UniProt P00533); test: CEER phospho HER1 activation level; format: cell-based; conditions: Lim1215 cells; 24 h; series 4 (FIG. 4; DMSO 4.7); assay range 0.14-10.67
T2 construct: endogenous in cells; host or cells: Lim1215 human colon cancer cells
From the text: as §1

HER1:HER2 = test: CEER ErbB heterodimerization assay, HER1:HER2 dimer; format: cell-based, human; conditions: Lim1215 cells, 24 h, assay range 7.8-1000
From the text: as §2, §3, §1

HER1 [6] = test: CEER total HER1 expression level; format: cell-based, human; conditions: Lim1215 cells, 24 h, assay range 7.8-500
From the text: as §1

[7] = series 3 (FIG. 3; control 16.3)
[8] = series 3 (FIG. 3; control […] >ULOQ)
[9] = series 3 (FIG. 3; control 11.4)
[10] = series 3 (FIG. 3; control 4282)
[11] = series 3 (FIG. 3; control 211.8)
[12] = series 3 (FIG. 3; control 3025)

T1 sequence (P04626 23-1255): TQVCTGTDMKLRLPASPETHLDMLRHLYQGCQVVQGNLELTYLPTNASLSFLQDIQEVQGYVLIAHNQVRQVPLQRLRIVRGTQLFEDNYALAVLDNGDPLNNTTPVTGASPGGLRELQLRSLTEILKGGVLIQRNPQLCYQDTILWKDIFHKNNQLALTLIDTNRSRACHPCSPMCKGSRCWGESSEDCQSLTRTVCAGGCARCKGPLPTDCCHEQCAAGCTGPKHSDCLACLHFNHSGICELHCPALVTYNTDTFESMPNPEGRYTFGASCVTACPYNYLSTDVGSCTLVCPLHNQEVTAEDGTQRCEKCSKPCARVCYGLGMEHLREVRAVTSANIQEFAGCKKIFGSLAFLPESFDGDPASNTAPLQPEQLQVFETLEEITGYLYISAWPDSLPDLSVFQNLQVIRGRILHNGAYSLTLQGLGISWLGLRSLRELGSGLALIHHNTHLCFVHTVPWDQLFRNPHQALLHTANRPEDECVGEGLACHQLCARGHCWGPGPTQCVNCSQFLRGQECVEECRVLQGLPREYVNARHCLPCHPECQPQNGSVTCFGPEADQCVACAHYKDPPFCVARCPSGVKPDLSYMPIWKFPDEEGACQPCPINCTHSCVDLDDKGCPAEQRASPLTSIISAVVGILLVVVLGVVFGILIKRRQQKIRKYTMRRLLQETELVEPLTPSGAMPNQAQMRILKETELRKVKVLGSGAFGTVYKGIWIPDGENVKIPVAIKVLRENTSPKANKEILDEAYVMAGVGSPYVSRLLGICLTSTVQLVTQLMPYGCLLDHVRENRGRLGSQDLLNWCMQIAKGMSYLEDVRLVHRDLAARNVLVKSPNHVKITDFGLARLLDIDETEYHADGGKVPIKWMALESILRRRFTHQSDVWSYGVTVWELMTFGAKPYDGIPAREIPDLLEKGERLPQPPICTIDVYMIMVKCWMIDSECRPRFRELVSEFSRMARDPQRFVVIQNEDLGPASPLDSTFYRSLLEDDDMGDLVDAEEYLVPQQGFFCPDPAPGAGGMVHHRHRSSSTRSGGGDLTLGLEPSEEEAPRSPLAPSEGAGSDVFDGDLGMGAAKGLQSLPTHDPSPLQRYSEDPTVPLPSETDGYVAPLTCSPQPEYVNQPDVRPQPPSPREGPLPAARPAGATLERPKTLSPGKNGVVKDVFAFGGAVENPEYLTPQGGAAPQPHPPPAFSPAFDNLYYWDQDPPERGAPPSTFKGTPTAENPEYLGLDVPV
T2 sequence (P00533 25-1210): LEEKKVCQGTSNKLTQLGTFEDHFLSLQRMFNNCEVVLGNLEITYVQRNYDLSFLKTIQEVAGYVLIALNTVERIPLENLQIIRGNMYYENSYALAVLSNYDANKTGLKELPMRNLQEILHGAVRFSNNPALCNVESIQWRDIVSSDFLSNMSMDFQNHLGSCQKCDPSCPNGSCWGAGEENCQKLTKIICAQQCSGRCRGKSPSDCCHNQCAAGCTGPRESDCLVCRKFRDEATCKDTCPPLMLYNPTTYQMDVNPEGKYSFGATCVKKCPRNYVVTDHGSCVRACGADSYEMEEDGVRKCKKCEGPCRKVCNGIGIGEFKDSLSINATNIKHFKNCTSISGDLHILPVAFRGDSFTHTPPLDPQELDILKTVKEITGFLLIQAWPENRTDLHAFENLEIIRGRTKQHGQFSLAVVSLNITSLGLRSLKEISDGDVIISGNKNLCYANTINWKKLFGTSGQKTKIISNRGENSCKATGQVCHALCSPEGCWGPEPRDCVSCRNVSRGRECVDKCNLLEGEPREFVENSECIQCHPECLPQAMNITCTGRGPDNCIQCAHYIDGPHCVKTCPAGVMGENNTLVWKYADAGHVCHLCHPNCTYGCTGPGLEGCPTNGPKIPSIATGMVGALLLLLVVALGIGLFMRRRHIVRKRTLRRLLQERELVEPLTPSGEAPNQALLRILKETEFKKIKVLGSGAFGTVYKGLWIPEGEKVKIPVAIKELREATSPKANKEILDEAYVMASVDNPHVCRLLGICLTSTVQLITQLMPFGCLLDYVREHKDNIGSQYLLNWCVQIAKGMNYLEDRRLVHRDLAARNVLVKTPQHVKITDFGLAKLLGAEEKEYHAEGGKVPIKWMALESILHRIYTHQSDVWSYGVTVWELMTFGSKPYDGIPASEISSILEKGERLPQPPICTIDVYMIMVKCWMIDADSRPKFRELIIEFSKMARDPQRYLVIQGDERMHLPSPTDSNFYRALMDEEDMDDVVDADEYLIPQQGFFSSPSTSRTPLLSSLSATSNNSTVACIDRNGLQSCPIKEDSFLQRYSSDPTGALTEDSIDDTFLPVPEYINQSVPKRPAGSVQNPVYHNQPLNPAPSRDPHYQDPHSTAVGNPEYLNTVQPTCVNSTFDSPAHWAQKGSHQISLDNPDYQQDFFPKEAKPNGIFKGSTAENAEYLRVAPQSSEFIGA

| Phos HER2 (2.5 ug) (HER2 [2]; series 4 (FIG. 4; DMSO 447)) | Compound | Phos MEK (10 ug) (MEK; [7]) [pg/µg] | Phos MEK (10 ug) (MEK; series 4 (FIG. 4; DMSO 9.8)) [pg/µg] | Phos RSK (10 ug) (RSK; [8]) [pg/µg] | Phos RSK (10 ug) (RSK; series 4 (FIG. 4; DMSO 91.4)) [pg/µg] | Phos ERK (10 ug) (ERK; series 3 (FIG. 3; control 5.3)) [pg/µg] | Phos ERK (10 ug) (ERK; series 4 (FIG. 4; DMSO 3.3)) [pg/µg] | Phos AKT (10 ug) (AKT; [9]) [pg/µg] | Total HER3 (0.2 ug) (HER3 [1]; [10]) | Total HER3 (0.2 ug) (HER3 [1]; series 4 (FIG. 4; DMSO 3388)) | HER3:PI3K (4 ug) (HER3:PI3K) | ErbB Dimer Formation HER2:HER3 (2 ug) (HER2:HER3; [11]) | ErbB Dimer Formation HER2:HER3 (2 ug) (HER2:HER3; series 4 (FIG. 4; DMSO 172.5)) | Phos HER3 (10 ug) (HER3 [3]; series 3 (FIG. 3; control 573)) | Total HER2 (0.2 ug) (HER2 [4]; [12]) | Total HER2 (0.2 ug) (HER2 [4]; series 4 (FIG. 4; DMSO 2581)) | also measured |
| --- | --- | --- | --- | --- | --- | --- | --- | --- | --- | --- | --- | --- | --- | --- | --- | --- | --- |
| – | COc1cc2ncnc(Nc3ccc(F)c(Cl)c3)c2cc1OCCCN1CCOCC1 [Gefitinib, gefitinib] | 2.9 | 1.7 | 6.3 | 4.7 | 1.1 | 0.68 | 0.64 | – | – | – | – | – | – | – | – | – |
| 15 | CS(=O)(=O)CCNCc1ccc(-c2ccc3ncnc(Nc4ccc(OCc5cccc(F)c5)c(Cl)c4)c3c2)o1 [Lapatinib, lapatinib] | 3.1 | 1.4 | 3.9 | 3.3 | 0.84 | 0.56 | 0.66 | 5711 | 6907 | 23.0 | 493.6 | 301.3 | 677 | 5391 | 4135 | Phos HER2 (2.5 ug) (HER2 [2]; series 3 (FIG. 3; control 2068 >ULOQ)): 49 |
| 480 | O=C(NC[C@H](O)CO)c1ccncc1Nc1ccc(I)cc1F [iMEK AS703026, AS703026] | – | 74.9 | – | 35.9 | – | 1.1 | – | – | 3317 | 27.8 | – | 313.2 | – | – | 2546 | ErbB Dimer Formation HER1:HER3 (0.5 ug) (HER1:HER3; series 4 (FIG. 4; DMSO 186)): 226; Phos HER1 (10 ug) (HER1 [5]): 2.9; ErbB Dimer Formation HER1:HER2 (2 ug) (HER1:HER2; series 4 (FIG. 4; DMSO 42.7)): 52.1; Phos HER3 (10 ug) (HER3 [3]; series 4 (FIG. 4; DMSO 204)): 300; Total HER1 (1 ug) (HER1 [6]; series 4 (FIG. 4; DMSO 96.8)): 69.9 |
| – | pertuzumab | 8.6 | – | 92.1 | – | 2.2 | – | 1.2 | 5501 | – | – | 472.1 | – | 826 | 5568 | – | ErbB Dimer Formation HER1:HER3 (0.5 ug) (HER1:HER3; series 2 (FIG. 2; Control 387)): 458; ErbB Dimer Formation HER1:HER3 (0.5 ug) (HER1:HER3; series 3 (FIG. 3; control 398)): 412; Total HER3 (0.2 ug) (HER3 [1]; series 2 (FIG. 2; Control 7757)): 10665; Phos MEK (10 ug) (MEK; series 2 (FIG. 2; Control 38.0)): 17.1 pg/µg; ErbB Dimer Formation HER1:HER2 (2 ug) (HER1:HER2; series 2 (FIG. 2; Control […])): 161.7; ErbB Dimer Formation HER1:HER2 (2 ug) (HER1:HER2; series 3 (FIG. 3; control 46.0)): 64.8; ErbB Dimer Formation HER2:HER3 (2 ug) (HER2:HER3; series 2 (FIG. 2; Control 250.9)): 704.6; Phos HER3 (10 ug) (HER3 [3]; series 2 (FIG. 2; Control 236)): 313; Total HER2 (0.2 ug) (HER2 [4]; series 2 (FIG. 2; Control 4212)): 7200; Phos RSK (10 ug) (RSK; series 2 (FIG. 2; Control 289 >ULOQ)): 199 pg/µg; Phos ERK (10 ug) (ERK; series 2 (FIG. 2; Control 5.7)): 5.6 pg/µg; Phos AKT (10 ug) (AKT; series 2 (FIG. 2; Control 9.6)): 6.1 pg/µg; Total HER1 (1 ug) (HER1 [6]; series 2 (FIG. 2; Control 171.4)): 198.5; Total HER1 (1 ug) (HER1 [6]; series 3 (FIG. 3; control 137.2)): 115.1 |
